Converted amounts (≈) assume the structure as drawn.
Key:
[1] = Cytotoxicity against HEK293T cells after 48 hrs by MTS assay; type: cell-based, HEK-293T; details: human
[2] = system: Staphylococcus epidermidis; test: Antibacterial activity against methicillin-resistant Staphylococcus epidermidis 09-3 by agar dilution method; type: functional
[3] = system: Enterococcus faecalis; test: Antibacterial activity against vancomycin-sensitive Enterococcus faecalis ATCC 29212 by agar dilution method; type: functional
[4] = system: Providencia rettgeri; test: Antibacterial activity against Providencia rettgeri ATCC 31052 by agar dilution method; type: functional
[5] = system: Proteus vulgaris; test: Antibacterial activity against Proteus vulgaris ATCC 29905 by agar dilution method; type: functional
[6] = system: Escherichia coli; test: Antibacterial activity against extended-spectrum beta-lactamase-negative Escherichia coli ATCC 25922 by agar dilution method; type: functional
[7] = system: Klebsiella pneumoniae; test: Antibacterial activity against extended-spectrum beta-lactamase-positive Klebsiella pneumoniae 09-25 by agar dilution method; type: functional
[8] = system: Pseudomonas aeruginosa; test: Antibacterial activity against Pseudomonas aeruginosa ATCC 27853 by agar dilution method; type: functional
[9] = system: Proteus mirabilis; test: Antibacterial activity against Proteus mirabilis 09-1 by agar dilution method; type: functional
[10] = system: Enterococcus faecium; test: Antibacterial activity against vancomycin-resistant Enterococcus faecium ATCC 700221 by agar dilution method; type: functional
[11] = system: Staphylococcus aureus; test: Antibacterial activity against methicillin-sensitive Staphylococcus aureus 09-6 by agar dilution method; type: functional
[12] = system: Staphylococcus epidermidis; test: Antibacterial activity against methicillin-sensitive Staphylococcus epidermidis 09-9 by agar dilution method; type: functional
[13] = system: Morganella morganii; test: Antibacterial activity against Morganella morganii ATCC 25830 by agar dilution method; type: functional
[14] = system: Citrobacter freundii; test: Antibacterial activity against Citrobacter freundii ATCC 43864 by agar dilution method; type: functional
[15] = system: Klebsiella pneumoniae; test: Antibacterial activity against extended-spectrum beta-lactamase-positive Klebsiella pneumoniae ATCC 700603 by agar dilution method; type: functional
[16] = system: Enterococcus faecalis; test: Antibacterial activity against vancomycin-sensitive Enterococcus faecalis 09-8 by agar dilution method; type: functional
[17] = system: Klebsiella pneumoniae; test: Antibacterial activity against extended-spectrum beta-lactamase-negative Klebsiella pneumoniae 7 by agar dilution method; type: functional
[18] = system: Escherichia coli; test: Antibacterial activity against extended-spectrum beta-lactamase-negative Escherichia coli 1515 by agar dilution method; type: functional
[19] = system: Staphylococcus aureus; test: Antibacterial activity against methicillin-resistant Staphylococcus aureus ATCC 33591 by agar dilution method; type: functional
[20] = system: Escherichia coli; test: Antibacterial activity against extended-spectrum beta-lactamase-negative Escherichia coli 09-20 by agar dilution method; type: functional
[21] = system: Enterococcus faecalis; test: Antibacterial activity against vancomycin-resistant Enterococcus faecalis 09-9 by agar dilution method; type: functional
[22] = system: Staphylococcus aureus; test: Antibacterial activity against methicillin-sensitive Staphylococcus aureus 15 by agar dilution method; type: functional
[23] = system: Staphylococcus aureus; test: Antibacterial activity against methicillin-sensitive Staphylococcus aureus ATCC 29213 by agar dilution method; type: functional
[24] = system: Serratia marcescens; test: Antibacterial activity against Serratia marcescens 41002 by agar dilution method; type: functional
[25] = system: Salmonella typhi; test: Antibacterial activity against Salmonella typhi H901 by agar dilution method; type: functional, Salmonella enterica subsp. enterica serovar Typhi; details: Salmonella enterica
[26] = system: Pseudomonas aeruginosa; test: Antibacterial activity against Pseudomonas aeruginosa 09-14 by agar dilution method; type: functional
[27] = system: Staphylococcus epidermidis; test: Antibacterial activity against methicillin-sensitive Staphylococcus epidermidis ATCC 12228 by agar dilution method; type: functional
[28] = system: Enterococcus faecium; test: Antibacterial activity against vancomycin-sensitive Enterococcus faecium 09-10 by agar dilution method; type: functional
[29] = system: Escherichia coli; test: Antibacterial activity against extended-spectrum beta-lactamase-positive Escherichia coli 09-1 by agar dilution method; type: functional
[30] = system: Staphylococcus aureus; test: Antibacterial activity against methicillin-resistant Staphylococcus aureus 09-13 by agar dilution method; type: functional
[31] = system: Enterobacter cloacae; test: Antibacterial activity against Enterobacter cloacae 45301 by agar dilution method; type: functional
[32] = system: Klebsiella pneumoniae; test: Antibacterial activity against extended-spectrum beta-lactamase-negative Klebsiella pneumoniae 09-8 by agar dilution method; type: functional
[33] = system: Klebsiella aerogenes; test: Antibacterial activity against Enterobacter aerogenes 45102 by agar dilution method; type: functional
[34] = system: Enterococcus faecalis; test: Antibacterial activity against vancomycin-resistant Enterococcus faecalis ATCC 51299 by agar dilution method; type: functional
[35] = system: Klebsiella pneumoniae; test: Antibacterial activity against Klebsiella pneumoniae ATCC BAA-2146 expressing NDM-1 by agar dilution method; type: functional
[36] = system: Enterococcus faecium; test: Antibacterial activity against vancomycin-resistant Enterococcus faecium 05-8 by agar dilution method; type: functional
[37] = system: Pseudomonas aeruginosa; test: Antibacterial activity against Pseudomonas aeruginosa PAO1 by agar dilution method; type: functional
[38] = system: Acinetobacter calcoaceticus; test: Antibacterial activity against Acinetobacter calcoaceticus ATCC 19606 by agar dilution method; type: functional

Compound	CC50 at 48 h [1] [µg/mL]	MIC [2] [µg/mL]	MIC [3] [µg/mL]	MIC [4] [µg/mL]	MIC [5] [µg/mL]	MIC [6] [µg/mL]	MIC [7] [µg/mL]	MIC [8] [µg/mL]	MIC [9] [µg/mL]	MIC [10] [µg/mL]	MIC [11] [µg/mL]	MIC [12] [µg/mL]	MIC [13] [µg/mL]	MIC [14] [µg/mL]	MIC [15] [µg/mL]	MIC [16] [µg/mL]	MIC [17] [µg/mL]	MIC [18] [µg/mL]	MIC [19] [µg/mL]	MIC [20] [µg/mL]	also measured
CC1CCN(C(=N)c2ccc3cc(-c4ccc(Oc5ccc(-c6cc7ccc(C(=N)N8CCC(C)CC8)cc7[nH]6)cc5)cc4)[nH]c3c2)CC1	3.2 (≈ 4.93 µM)	8 (≈ 12.3 µM)	64 (≈ 98.6 µM)	> 128	> 128	> 128	> 128	> 128	> 128	16 (≈ 24.7 µM)	16 (≈ 24.7 µM)	8 (≈ 12.3 µM)	> 128	> 128	> 128	128 (≈ 197 µM)	> 128	> 128	16 (≈ 24.7 µM)	> 128	MIC [21]: 128 µg/mL (≈ 197 µM); MIC [22]: 16 µg/mL (≈ 24.7 µM); MIC [23]: 16 µg/mL (≈ 24.7 µM); MIC [24]: > 128 µg/mL; MIC [25]: > 128 µg/mL; MIC [26]: > 128 µg/mL; MIC [27]: 4 µg/mL (≈ 6.16 µM); MIC [28]: 128 µg/mL (≈ 197 µM); MIC [29]: > 128 µg/mL; MIC [30]: 16 µg/mL (≈ 24.7 µM); MIC [31]: > 128 µg/mL; MIC [32]: > 128 µg/mL; MIC [33]: > 128 µg/mL; MIC [34]: 128 µg/mL (≈ 197 µM); MIC [35]: > 128 µg/mL; MIC [36]: 128 µg/mL (≈ 197 µM); MIC [37]: > 128 µg/mL; MIC [38]: > 128 µg/mL
N=C(c1ccc2cc(-c3ccc(Oc4ccc(-c5cc6ccc(C(=N)N7CCCC7)cc6[nH]5)cc4)cc3)[nH]c2c1)N1CCCC1	3.2 (≈ 5.4 µM)	1 (≈ 1.69 µM)	8 (≈ 13.5 µM)	> 128	64 (≈ 108 µM)	16 (≈ 27 µM)	64 to 128 (≈ 108 to 216 µM)	> 128	128 (≈ 216 µM)	2 (≈ 3.37 µM)	2 (≈ 3.37 µM)	2 (≈ 3.37 µM)	16 (≈ 27 µM)	128 (≈ 216 µM)	128 (≈ 216 µM)	32 (≈ 54 µM)	64 to 128 (≈ 108 to 216 µM)	64 (≈ 108 µM)	1 (≈ 1.69 µM)	64 (≈ 108 µM)	MIC [21]: 32 µg/mL (≈ 54 µM); MIC [22]: 1 µg/mL (≈ 1.69 µM); MIC [23]: 2 µg/mL (≈ 3.37 µM); MIC [24]: > 128 µg/mL; MIC [25]: 32 µg/mL (≈ 54 µM); MIC [26]: > 128 µg/mL; MIC [27]: 0.5 µg/mL (≈ 0.844 µM); MIC [28]: 8 µg/mL (≈ 13.5 µM); MIC [29]: 64 µg/mL (≈ 108 µM); MIC [30]: 1 µg/mL (≈ 1.69 µM); MIC [31]: 64 µg/mL (≈ 108 µM); MIC [32]: 64 µg/mL (≈ 108 µM); MIC [33]: > 128 µg/mL; MIC [34]: 8 µg/mL (≈ 13.5 µM); MIC [35]: 64 to 128 µg/mL (≈ 108 to 216 µM); MIC [36]: 8 µg/mL (≈ 13.5 µM); MIC [37]: > 128 µg/mL; MIC [38]: > 128 µg/mL

Reference: ChEMBL document CHEMBL4002623, “Synthesis and in vitro activity of dicationic indolyl diphenyl ethers as novel potent antibiotic agents against drug-resistant bacteria” (Bioorg Med Chem Lett, 2017)
